In patent US6432403B1, “Antibodies to polypeptides having prenylcysteine carboxyl methlytransferase activity or inhibiting activity” (New York University, priority 1997, dated 2002):

Legend:
human pcCMT [1] = target: T1, human pcCMT (Homo sapiens, UniProt O60725); assay: Carboxyl methylation of prenylcysteine analogs (AFC, AGGC) as defined substrates by the recombinant enzyme in COS-1 membranes; type: biochemical
T1 construct: The 3.6-kb full-length HL60 pcCMT cDNA and an 852-bp cDNA fragment comprising the ORF were subcloned into the eukaryotic expression vectors; expressed in transfected cells; host or cells: COS-1 cells (pCDM8 vector, DEAE-dextran transfection); light membranes after nitrogen cavitation
T1 sequence (O60725 whole entry, the tested form may be a part): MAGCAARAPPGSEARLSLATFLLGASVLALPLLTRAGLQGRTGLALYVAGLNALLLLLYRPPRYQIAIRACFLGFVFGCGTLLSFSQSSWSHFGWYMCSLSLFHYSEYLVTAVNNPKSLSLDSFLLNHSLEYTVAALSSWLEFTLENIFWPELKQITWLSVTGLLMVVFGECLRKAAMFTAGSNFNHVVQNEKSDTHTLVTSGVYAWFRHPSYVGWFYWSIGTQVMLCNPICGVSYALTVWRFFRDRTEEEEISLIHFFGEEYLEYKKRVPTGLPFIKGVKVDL
Method: (§1) Prenylcysteine Carboxyl Methyltransferase Assays: COS-1 cells transfected with HL60 pcCMT or vector alone were harvested at 48 hours with 5 mM EDTA and subjected, in parallel with human neutrophils, to nitrogen cavitation and discontinuous sucrose density centrifugation as described (Philips et al, 1991). Light membranes were assayed for pcCMT activity qualitatively by S-adenosyl-L- [methyl-^3H]methionine labeling (SDS-polyacrylamide gel electrophoresis and flurography) of Rho GTPases partially purified from neutrophil cytosol and quantitatively by carboxyl methylation of N-acetyl-S-trans,trans-farnesyl-L-cysteine (AFC) (heptane partition, alkaline hydrolysis, and measurement of vapor phase [^3H]methanol) as described (Philips et al, 1995)
(§2) To determine whether the HL60 STE14 protein homolog has prenylcysteine carboxyl methyltransferase activity, the cDNA was subcloned into a mammalian expression vector PCDM8 (Invitrogen, San Diego, Calif.) and transiently overexpressed ectopically in COS-1 cells. Membranes prepared from these cells were used as a source of recombinant enzyme. Farnesylated Ras GTPases require detergent for extraction from membranes. Therefore, geranylgeranylated neutrophil cytosolic Rho accessory protein, guanine nucleotide dissociation inhibitor (GDI), were utilized as endogenous substrates in an in vitro assay (FIGS. 5A and 5B). Untransfected COS-1 cell membranes had little pcCMT activity toward Rho proteins compared with that of membranes derived from human neutrophils (FIG. 5A). Transfection with the HL60 cDNA conferred pcCMT activity toward Rho GTPases on COS-1 membranes, and this activity was blocked by the competitive pcCMT inhibitor, AFC, with an ED50 (10 μM) identical to that for endogenous neutrophil pcCMT. Carboxyl methylation of Rac2 and RhoA by HL60 pcCMT-transfected COS-1 cell membranes was enhanced by guanosine 5′-3-O-(thio)triphosphate (GTPγS) (FIG. 5B), similar to the activity observed in neutrophil membranes (Philips et al, 1993). Carboxyl methyltransferase activity was quantitated in membranes of COS-1 cells transfected with HL60 pcCMT using prenylcysteine analogs as defined substrates (Philips et al, 1995). Untransfected COS-1 cell membranes had […] (n=5) of the pcCMT specific activity of neutrophil membranes toward AFC.
The Michaelis constants of the recombinant enzyme, Km=7 μM for AFC and 0.6 μM for AGGC, were similar to those for the endogenous neutrophil enzyme (Pillinger et al, 1994). Thus, the cDNA described above encodes authentic human myeloid pcCMT.

[2] = Prenylcysteine carboxyl methyltransferase activity of membranes, AFC as substrate; type: biochemical, human; settings: for Increase: relative to COS + Vector; for Relative enzymatic activity: COS cell membranes, Vector Alone = 1
Description: Expression of Recombinant pcCMT: The 3.6-kb full-length HL60 pcCMT cDNA and an 852-bp cDNA fragment comprising the ORF were subcloned into the eukaryotic expression vectors pCDM8 and pcDNA3.1 (Invitrogen, Carlsbad, Calif.). Myc-tagged pcCMT was made by adding a sequence encoding the 10-amino acid epitope of c-Myc recognized by monoclonal antibody 9E10 to the C terminus of pcCMT using patch PCR and subcloning into pcDNA3.1. pcCMT tagged at the C terminus with GFP was generated by subcloning the pcCMT ORF into the expression vector pGFP-N3 (Clontech). For pcCMT enzymatic assays, COS-1 cells were grown in 10-cm dishes and transfected with pcCMT with DEAE-dextran as described (Aruffo et al, 1987). For fluorescence microscopy, exponentially growing COS-1, CHO, and NIH3T3 cells were plated the day prior to transfection at 50-60% confluence and transfected with 2 μg of DNA using LipofectAMINE (Life Technologies, Inc.), Gaithersburg, Md.) according to the manufacturer's instructions.
as §1, §2

human pcCMT [3] = target: T1, human pcCMT; assay: Carboxyl methylation of Rho GTPases by COS-1 cell membranes expressing human pcCMT (S-adenosyl-L-[methyl-3H]methionine labeling, SDS-PAGE, fluorography); type: biochemical; settings: HL60 pcCMT-transfected COS-1 cell membranes; 10 μM
Method: FIGS. 5A and 5B show the carboxyl methylation of ras-related GTPases by COS-1 cell membranes expressing ectopic human pcCMT. In FIG. 5A, neutrophil cytosol (CS) containing a mixture of Rho family proteins complexed with Rho-GDI (lanes 2, 3, 6, 7, 10, 11) or RhoA-GDI complexes partially purified from CS (lanes 4, 8, 12) were incubated with the methyl donor S-adenosyl-L-[methyl-^3H]methionine and light membranes derived from nitrogen cavitation of human neutrophils (lanes 1-4) or COS-1 cells transiently transfected with either human pcCMT (lanes 5-8) or vector alone (lanes 9-12). In some reactions (lanes 3, 7, 11) a competitive pcCMT inhibitor, AFC, was included. Reaction products were analyzed by SDS-PAGE and fluorography. The position of carboxyl methylated […] is indicated as is the position of protein phosphatase 2a (PP2a) that is methylated on a C-terminal leucine by an enzyme unrelated to pcCMT (Lee et al, 1993). […] Carboxyl methyltransferase activity was quantitated in membranes of COS-1 cells transfected with HL60 pcCMT using prenylcysteine analogs as defined substrates (Philips et al, 1995). […]

Δste14 yeast strain = assay: ste14 complementation, patch mating test; type: cell-based, S. cerevisiae; settings: cDNA expressed from a plasmid
Method: S. cerevisiae Strains, Growth, and ste14 Complementation: Complete (YEPD), synthetic (SD), and synthetic dropout media were prepared as described previously (Michaelis et al, 1988), except that dropout medium lacked cysteine. All experiments were performed at 30° C. Yeast transformations were carried out by either the lithium acetate method (Ito et al, 1983) or the Elble method (Elble, 1992). The ste14 deletion strains used are SM1188 (MATαΔste14-3:: TRP1 trp1 leu2 ura3 his4 can1) and SM1639 (MATαΔste14-4:: URA3 trp1 leu2 his4 can1) (Sapperstein et al, 1994). Plasmid expression of STE14 protein was accomplished by pSM1237 (CEN URA3 STE14). Human pcCMT was expressed in yeast by subcloning the HL60 pcCMT ORF into the BamHI SalI sites of the yeast expression plasmid pG1 (2μ TRP1) that utilizes a GPD promoter and a PGK transcription terminator and polyadenylation signal (Schena et al, 1991). The resulting construct was designated pG1-hCMT (2μ TRP1 hCMT). Patch mating tests were carried out essentially as described previously (Michaelis et al, 1988). briefly, patches of MATα cells grown on selective media were replica plated onto a lawn of the […], SM1068 (lys1), that had been spread on an SD plate. […]
To determine whether human pcCMT could substitute in vivo for the S. cerevisiae pcCMT, STE14 protein, a complementation analysis was done using mating as a biological readout. […]

Compound: CC(=O)N[C@@H](CSC/C=C(\C)CC/C=C(\C)CC/C=C(\C)CCC=C(C)C)C(=O)O (stereo in doubt) [AGGC, N-acetyl-S-all-trans-geranylgeranyl-L-cysteine]
- Increase in carboxyl methylation of the substrate on pcCMT transfection (human pcCMT [1]; n=2): 18 fold
- Km (human pcCMT [1]; recombinant enzyme, read-out: Michaelis constant Km): 0.6 µM

Compound: COS + pcCMT ORF: membranes of COS cells transfected with pCDM8 + pcCMT ORF only
- Activity ([2]; Experiment 2): 84.6 pmol/mg/min
- Increase ([2]; Experiment 2): 45 fold
- Activity ([2]; Experiment 3): 90.7 pmol/mg/min
- Increase ([2]; Experiment 3): 53 fold

Compound: pcCMT-FLAG: pcCMT with the 8-amino acid FLAG epitope as C-terminal extension
- Relative enzymatic activity ([2]; Experiment #2): 5.45
- Relative enzymatic activity ([2]; Experiment #3): 18.5

Compound: PcCMT-Myc: pcCMT with the 10-amino acid c-Myc epitope added at the C terminus
- Relative enzymatic activity ([2]; Experiment #1): 11.1

Compound: COS + pcCMT cDNA: membranes of COS cells transfected with pCDM8 + pcCMT full-length cDNA
- Activity ([2]; Experiment 1): 62.7 pmol/mg/min
- Increase ([2]; Experiment 1): 12 fold
- Activity ([2]; Experiment 2): 17.7 pmol/mg/min
- Increase ([2]; Experiment 2): 9 fold
- Activity ([2]; Experiment 3): 35.3 pmol/mg/min
- Increase ([2]; Experiment 3): 21 fold

Compound: Nc1nc2c(ncn2[C@@H]2O[C@H](COP(=O)(O)OP(=O)(O)OP(O)(O)=S)[C@@H](O)[C@H]2O)c(=O)[nH]1 [GTPγS, guanosine 5′-3-O-(thio)triphosphate]
- Effect on carboxyl methylation of Rac2 and RhoA (human pcCMT [3]): enhanced

Compound: HL60 pcCMT: human prenylcysteine carboxyl methyltransferase, 284 amino acid protein of SEQ ID NO:5, ectopically expressed in COS-1 cell membranes
- Restoration of mating phenotype (Δste14 yeast strain): partially restored the mating phenotype
- Relative enzymatic activity ([2]; Experiment #1): 14.1
- Relative enzymatic activity ([2]; Experiment #2): 5.4
- Relative enzymatic activity ([2]; Experiment #3): 19.6
- Specific AFC carboxyl methyltransferase activity ([2]; transfected COS-1 membranes, n=5, p<0.0005): 74.5 ± 6.8 pmol/mg/min
- Increase in specific AFC carboxyl methyltransferase activity ([2]; transfection of COS-1 cells): 18-53 fold
